From article PMC2865576 (Journal of medicinal chemistry, 2010)
“Also recorded” adds a separate entry of the source. Marks after values point to notes of the source that are not given here.

Legend:
[1] = system: intracellular T. gondii tachyzoites in HFF monolayers; assay: Replication assay; format: cell-based, Toxoplasma gondii; settings: for Replication inhibition, result in words: added 2 h after inoculation, 24-26 h; for Parasite doublings per vacuole, dose-response experiment: separate experiments, authors' unpublished results [37]; for inhibition at 10 µM: Toxoplasma gondii, read-out: Inhibition of parasite replication
[2] = system: tachyzoites of T.gondii strain 2F; assay: Five day growth inhibition assay; format: cell-based, Toxoplasma gondii; settings: HFF cells
[3] = system: human foreskin fibroblast (HFF) host cells; format: cell-based; settings: 5 days

Structure (SMILES): CO[C@H]1O[C@@H]2O[C@@]3(C)CC[C@H]4[C@H](C)CC[C@@H]([C@H]1C)[C@@]24OO3 [Artemether, reference compound]
- Replication inhibition, result in words ([1]; 10 μM): only modest inhibition

Structure (SMILES): C[C@@H]1CC[C@H]2[C@@H](C)C(=O)O[C@@H]3O[C@@]4(C)CC[C@@H]1[C@]32OO4 [Artemisinin, reference compound]
- Replication inhibition, result in words ([1]; 10 μM): no measurable activity

Structure (SMILES): CC1=C(c2nc(C)cs2)O[C@@H]2O[C@@]3(C)CC[C@H]4[C@H](C)CC[C@@H]1[C@@]24OO3 [Compound 2]
- Parasite doublings per vacuole, dose-response experiment ([1]; 1 μM): 2 doubling
- Parasite doublings per vacuole, dose-response experiment ([1]; 5 μM): 1 doubling
- Parasite doublings per vacuole, dose-response experiment ([1]; 10 μM): 1 doubling

Structure (SMILES): CC1=C(c2nc(C)c(C)s2)O[C@@H]2O[C@@]3(C)CC[C@H]4[C@H](C)CC[C@@H]1[C@@]24OO3 [Compound 3]
- Parasite doublings per vacuole, dose-response experiment ([1]; 1 μM): 1 doubling
- Parasite doublings per vacuole, dose-response experiment ([1]; 5 μM): 1 doubling
- Parasite doublings per vacuole, dose-response experiment ([1]; 10 μM): 1 doubling

Structure (SMILES): CC1=C(c2ncc(C)s2)O[C@@H]2O[C@@]3(C)CC[C@H]4[C@H](C)CC[C@@H]1[C@@]24OO3 [Compound 4]
- Parasite doublings per vacuole, dose-response experiment ([1]; 1 μM): 2 doubling
- Parasite doublings per vacuole, dose-response experiment ([1]; 5 μM): 1 doubling
- Parasite doublings per vacuole, dose-response experiment ([1]; 10 μM): 1 doubling

Structure (SMILES): CC1=C(c2nc(-c3ccccc3)cs2)O[C@@H]2O[C@@]3(C)CC[C@H]4[C@H](C)CC[C@@H]1[C@@]24OO3 [Compound 5]
- Parasite doublings per vacuole, dose-response experiment ([1]; 1 μM): 1 doubling
- Parasite doublings per vacuole, dose-response experiment ([1]; 5 μM): 1 doubling
- Parasite doublings per vacuole, dose-response experiment ([1]; 10 μM): 0.5 doubling

Structure (SMILES): CC1=C(c2nc(C3CCCCC3)cs2)O[C@@H]2O[C@@]3(C)CC[C@H]4[C@H](C)CC[C@@H]1[C@@]24OO3 [Compound 8]
- Replication inhibition, result in words ([1]; 10 μM): only weakly inhibited replication
- Growth inhibition, result in words [2]: ineffective

Structure (SMILES): CSc1ccc(-c2csc(C3=C(C)[C@@H]4CC[C@@H](C)[C@@H]5CC[C@@]6(C)OO[C@@]45[C@H](O3)O6)n2)cc1 [Compound 11]
- Replication inhibition, result in words ([1]; 10 μM): completely inhibited replication

Structure (SMILES): CC1=C(c2nc(-c3ccc(S(C)(=O)=O)cc3)cs2)O[C@@H]2O[C@@]3(C)CC[C@H]4[C@H](C)CC[C@@H]1[C@@]24OO3 [Compound 12]
- inhibition at 10 µM [1]: 75%

Structure (SMILES): CC1=C(c2nc(C)no2)O[C@@H]2O[C@@]3(C)CC[C@H]4[C@H](C)CC[C@@H]1[C@@]24OO3 [Compound 13]
- inhibition at 10 µM [1]: 50%

Structure (SMILES): CC1=C(c2nc(-c3ccccc3)no2)O[C@@H]2O[C@@]3(C)CC[C@H]4[C@H](C)CC[C@@H]1[C@@]24OO3 [Compound 14]
- Parasite doublings per vacuole, dose-response experiment ([1]; 1 μM): 1 doubling
- Parasite doublings per vacuole, dose-response experiment ([1]; 5 μM): 1 doubling
- Replication inhibition, result in words ([1]; 10 μM): effectively inhibited replication
- Parasite doublings per vacuole, dose-response experiment ([1]; 10 μM): 0.5 doubling
- inhibition at 10 µM [1]: 75%

Structure (SMILES): CCNC(=O)C1=C(C)[C@@H]2CC[C@@H](C)[C@@H]3CC[C@@]4(C)OO[C@@]23[C@H](O1)O4 [Compound 15]
- inhibition at 10 µM [1]: 50%

Structure (SMILES): CCN(CC)C(=O)C1=C(C)[C@@H]2CC[C@@H](C)[C@@H]3CC[C@@]4(C)OO[C@@]23[C@H](O1)O4 [Compound 16]
- Growth inhibition, result in words [2]: ineffective; also recorded: activity is lost

Structure (SMILES): CC1=C(C(=O)NCc2ccccc2)O[C@@H]2O[C@@]3(C)CC[C@H]4[C@H](C)CC[C@@H]1[C@@]24OO3 [Compound 18]
- inhibition at 10 µM [1]: 50%

Structure (SMILES): CC1=C(C(=O)NCc2ccc(F)cc2)O[C@@H]2O[C@@]3(C)CC[C@H]4[C@H](C)CC[C@@H]1[C@@]24OO3 [Compound 20]
- Replication inhibition, result in words ([1]; 10 μM): effectively inhibited replication
- inhibition at 10 µM [1]: 75%

Structure (SMILES): CC1=C(C(=O)NCc2ccc(C)cc2)O[C@@H]2O[C@@]3(C)CC[C@H]4[C@H](C)CC[C@@H]1[C@@]24OO3 [Compound 21]
- inhibition at 10 µM [1]: 50%

Structure (SMILES): CC1=C(C(=O)NCc2ccc(C(F)(F)F)cc2)O[C@@H]2O[C@@]3(C)CC[C@H]4[C@H](C)CC[C@@H]1[C@@]24OO3 [Compound 22]
- Replication inhibition, result in words ([1]; 10 μM): effectively inhibited replication
- inhibition at 10 µM [1]: 75%

Structure (SMILES): CC1=C(C(=O)NCc2ccc(F)c(F)c2)O[C@@H]2O[C@@]3(C)CC[C@H]4[C@H](C)CC[C@@H]1[C@@]24OO3 [Compound 23]
- inhibition at 10 µM [1]: 50%

Structure (SMILES): CC1=C(C(=O)NCc2cc(F)cc(F)c2)O[C@@H]2O[C@@]3(C)CC[C@H]4[C@H](C)CC[C@@H]1[C@@]24OO3 [Compound 24]
- inhibition at 10 µM [1]: 50%
- Growth inhibition, result in words [2]: potent parasite inhibition

Structure (SMILES): CC1=C(C(=O)NCc2cc(Br)cc(Br)c2)O[C@@H]2O[C@@]3(C)CC[C@H]4[C@H](C)CC[C@@H]1[C@@]24OO3 [Compound 25]
- Replication inhibition, result in words ([1]; 10 μM): completely inhibited replication; also recorded: effectively inhibited replication
- Growth inhibition, result in words [2]: potent parasite inhibition

Structure (SMILES): COc1cc(Cc2cnc(N)nc2N)cc(OC)c1OC [Trimethoprim]
- TD50, median cytotoxic dose [3]: ≥320 ^b μM
